The target in test [1] is rMpAOX incorporated into proteoliposomes (Moniliophthora perniciosa, UniProt A8QJP8). The experiment in a line: rMpAOX incorporated into proteoliposomes with Q10 and NDH-2 (NADH oxidation). It counts as biochemical. As to conditions: for Km / VMax: substrate ubiquinol-10 in proteoliposomes, ~50 ng rMpAOX, 300 µM NADH. Here is the method: Proteoliposomes (PL) were prepared as previously described[44],[45], except that NDH-2 was used instead of complex I and 0.5% DDM was used instead of OG. […] For kinetic studies, PLs were prepared with 50 µg rMpAOX and no NDH-2—in this case, pure NDH-2 was added directly into the enzymatic reaction mixture at a saturating concentration. Briefly, lipids and Q10 stocks in chloroform were mixed in a glass vial and the chloroform dried under a nitrogen stream. The lipids were hydrated and extruded through a 100 nm NanoSizer MINI Liposome Extruder (T&T Scientific) followed by the addition of protein. After treatment with the Bio-Beads SM-2 Resin (Bio-Rad), proteolipososmes were harvested by ultracentrifugation and resuspended in 150 µL of buffer. Enzymatic assays were performed on the same day.
rMpAOX incorporated into proteoliposomes, sequence (A8QJP8 entry or part of it): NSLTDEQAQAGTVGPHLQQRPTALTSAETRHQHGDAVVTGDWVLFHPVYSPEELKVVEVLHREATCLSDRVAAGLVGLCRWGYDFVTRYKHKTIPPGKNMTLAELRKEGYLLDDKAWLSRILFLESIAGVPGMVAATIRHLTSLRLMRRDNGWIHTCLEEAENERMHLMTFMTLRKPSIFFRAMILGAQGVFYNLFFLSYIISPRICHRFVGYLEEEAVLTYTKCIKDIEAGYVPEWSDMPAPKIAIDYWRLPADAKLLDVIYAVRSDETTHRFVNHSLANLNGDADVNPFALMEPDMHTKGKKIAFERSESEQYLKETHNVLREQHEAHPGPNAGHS
(§1) Respiration rates were recorded before and after the addition of putative AOX activators, such as 5′-ADP, 5′-AMP, 5′-GDP, 5′-GMP, glyoxylate, oxaloacetate, pyruvate or succinate (1 mM each unless stated otherwise). […] Data were acquired with the Multiskan FC Microplate Photometer (ThermoFisher). […] Absorbance readings were taken periodically and a blank reactions (substrate without enzyme) were included in every assay and were used to determine and subtract the autoxidation rate (background). Proteoliposomes were assayed as described for the E. coli membrane fraction except that no KCN was included and 0.5 µL of the prep (~50 ng rMpAOX) were added into the reaction. When tested, inhibitors were preincubated with the enzyme in reaction buffer for 2–5 min before starting the reaction by the addition of substrate. The path length (i.e., the height of the reaction medium inside the well) was calculated based on the reaction volume and the well cross-section area informed by the supplier. GraphPad Prism 7.0 (GraphPad Software Inc.) was used for function fitting.

Test [2] deals with T1, membrane-bound rMpAOX (Moniliophthora perniciosa, UniProt A8QJP8). The experiment in a line: Membrane-bound rMpAOX activity with putative activators (O2 uptake, oxygraph; dose-response).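 On Fractional velocity, %: 100% is the maximal rate reached in the activator titration.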 It counts as biochemical. Here is the method: (§2) E. coli membrane preparation was performed as described with minor modifications. […] The cells were disrupted using two passes at […] through a pre-cooled Constant cell disruption system (Constant Systems Ltd). The lysate was centrifuged for 15 min at 16,000 rcf, and the pelleted unbroken cells and large cell debris were discarded. The supernatant was centrifuged for 90 min at 200,000 rcf to collect the fragmented membranes.
T1 sequence (A8QJP8 entry or part of it): as above
as §1

In test [3] the target is purified rMpAOX (Moniliophthora perniciosa, UniProt A8QJP8). The experiment in a line: Purified (detergent-solubilised) rMpAOX, Q1H2 oxidation. It counts as biochemical. Particulars: GMP up to 0.5 mM, purified rMpAOX. Here is the method:
The E. coli membrane fraction was resuspended with 50 mM Tris-HCl pH 7.5, 20% glycerol, 200 mM MgSO4 and 1% Fos-Choline-12 (FC-12) instead of MOPS buffer. The sample was left under gentle rocking for 1 h at 4 °C, after which it was centrifuged at 200,000 rcf for 30 min. […] T. Elthon, Nebraska, USA. Protein content was estimated through the Bradford method[63] and bovine serum albumin as standard.
as §1

Test [4] concerns the target T1, membrane-bound rMpAOX. As to the kind of experiment: Dose-response assay of inhibitors with membrane-bound, GMP-activated rMpAOX (NADH oxidation). Format: biochemical. As to conditions: for Fractional velocity, %: log[I]. Here is the method:
as §2, §1

The subject of test [5] is membrane-bound TAO. As to the kind of experiment: Inhibition of membrane-bound TAO (literature). It counts as biochemical, Trypanosoma brucei. Particulars: from literature IC50 values.
Test [6] concerns membrane-bound TAO. Details: method as in PMID 23180806. As to conditions: cited from earlier work.
The subject of test [7] is WBD (witches' broom disease of cocoa, M. perniciosa). Details: method as in PMID 30350447. Particulars: 200 µM, in the absence of a main respiration inhibitor; cited from earlier work.

SMILES strings stand for the structures. “And” between values parts separate entries of the source, which are not always exact repeats. Identical values can stand only once.

purified rMpAOX, sequence (A8QJP8 entry or part of it): as above

As for `COc1c(O)c(C)c(C/C=C(\C)CC/C=C(\C)CC/C=C(\C)CC/C=C(\C)CC/C=C(\C)CC/C=C(\C)CC/C=C(\C)CC/C=C(\C)CC/C=C(\C)CCC=C(C)C)c(O)c1OC` [Q10H2, ubiquinol-10], the rMpAOX catalytic rate in test [1] (180 µM Q10H2 in the phospholipid membrane, calculated from KM and VMax) is 9.3 µmol/min/mg. Besides, in test [1], the Km was found to be 960 ± 760 µM and the VMax was found to be 59.4 ± 6.6 µmol Q10 min^−1 mg^−1.
Consider `Nc1nc2c(ncn2[C@@H]2O[C@H](COP(=O)(O)O)[C@@H](O)[C@H]2O)c(=O)[nH]1` [GMP, 5′-GMP], for which the “Maximum membrane-bound rMpAOX oxygen uptake” value in test [2] (1 mM GMP) is recorded as 0.67 µmol O2 min^−1 mg total protein^−1. Further, in test [2] (1 mM GMP), the “Maximum membrane-bound rMpAOX oxygen uptake per mg AOX” value is listed as 5 µmol O2 min^−1 mg AOX^−1. Besides, the “Increase of membrane-bound rMpAOX oxygen uptake” value in test [2] (1 mM activator) worked out at 9.8 times. Besides, the “Fold-change in membrane-bound rMpAOX O2 uptake” value in test [2] (1 mM each, single independent measurements (Fig1a)) is 8.8788 and 10.5259 and 10.0722. The “Fractional velocity, %” value was 56.6% and 57.7% in test [2] ([activator] 0.025 mM (Fig1b)); 100.5% and 91.4% in test [2] ([activator] 0.075 mM (Fig1b)); 125.1% and 121.5% in test [2] ([activator] 0.175 mM (Fig1b)); 153.9% and 143.6% in test [2] ([activator] 0.375 mM (Fig1b)); 166.3% and 158.4% in test [2] ([activator] 0.625 mM (Fig1b)); 182.1% and 175.1% in test [2] ([activator] 1.125 mM (Fig1b)). The “Fractional velocity, %” value in test [2] ([activator] 2.125 mM (Fig1b)) was 186.8% and 187.9%; in test [2] ([activator] 4.125 mM (Fig1b)), 193.5% and 196.9%; in test [2] ([activator] 6.625 mM (Fig1b)), 206.9% and 200.9%. For the same compound, in test [2] (membrane-bound rMpAOX, 4-parameter sigmoid fit, read-out: EC50 of rMpAOX activation), the EC50 stood at 166 µM. Further, the “Sensitivity of rMpAOX to GMP” value in test [1] (PL system) is on record as “not regained”. Besides, the “Effect on rMpAOX kinetic parameters KM and VMax” value in test [3] is given as “did not alter”.
For `CC(/C=C/[C@@]1(C)[C@H](C)CCC(=O)[C@@H]1C)=C\Cc1c(O)c(Cl)c(C)c(C=O)c1O` [AC, ascochlorin], the IC50 is 5.25 µM in test [4] and 0.0015 µM in test [6]. Further, the “Fractional velocity, %” value in test [4] (M -5.60206 (Fig2b), 2.5 µM) was 73.3239% and 61.6121%; in test [4] (M -6.60206 (Fig2b), 0.25 µM), 96.489% and 80.5494%; in test [4] (M -7.60206 (Fig2b), 0.025 µM), 98.3896% and 89.3939%; in test [4] (M -8.60206 (Fig2b), 0.0025 µM) it was 99.2565% and 89.0077%; in test [4] (M -9.60206 (Fig2b), 0.00025 µM) it was 97.0686% and 90.2842%; in test [4] (M -10.6021 (Fig2b), 25 pM) it was 95.0559% and 89.2874%. Also, the activity at 2.5 µM in test [4] (read-out: Fractional velocity, %, log[I], M -5.60206 (Fig2b)) came out at 60.8%. In addition, the activity at 0.25 µM in test [4] (read-out: Fractional velocity, %, log[I], M -6.60206 (Fig2b)) was determined as 92.8%. In addition, in test [4] (read-out: Fractional velocity, %, log[I], M -7.60206 (Fig2b)), the activity at 0.025 µM was found to be 98.2%. For the same compound, in test [4] (read-out: Fractional velocity, %, log[I], M -8.60206 (Fig2b)), the activity at 0.0025 µM was 97.9%. The activity at 0.00025 µM in test [4] (read-out: Fractional velocity, %, log[I], M -9.60206 (Fig2b)) came to 95.5%. For the same compound, the activity at 25 pM in test [4] (read-out: Fractional velocity, %, log[I], M -10.6021 (Fig2b)) is 93.4%. The “Ratio of AC IC50 to CB IC50 (TAO)” value in test [5] is listed as 7.5.
On to `O=C(Nc1cccc(Br)c1)c1cccc(F)c1` [N-(3-bromophenyl)-3-fluorobenzamide], for which, in test [7], the “Effect in plants against WBD” value is recorded as “protective effect”.
Regarding `COC1=C(OC)C(=O)C(C/C=C(\C)CC/C=C(\C)CC/C=C(\C)CC/C=C(\C)CC/C=C(\C)CC/C=C(\C)CC/C=C(\C)CC/C=C(\C)CC/C=C(\C)CCC=C(C)C)=C(C)C1=O` [Q10], in test [1], the Km stood at 960 ± 760 µM; the VMax was 59.4 µmol Q10 min^−1 mg^−1 and 59.4 ± 6.6 µmol Q10 min^−1 mg^−1.

One may read the Km as the substrate concentration at which the rate is half of its maximum. The EC50 is the concentration that produces a half-maximal response. A word on the IC50: it is the concentration at which inhibition is half-maximal.

The values are drawn from article PMC7248098, “Biochemical characterization and inhibition of the alternative oxidase enzyme from the fungal phytopathogen Moniliophthora perniciosa” (Communications Biology, 2020).
